{"source": "patent US5191079A", "about": "“Quinolinecarboxylic acid derivatives” (priority 1990, dated 1993)", "key": {"[1]": {"test_system": "Staphylococcus aureus IID 803", "experiment": "Effect on treatment of general infectious disease (systemic infection in mice), Experiment 3", "type": "in vivo, Staphylococcus aureus; ddY male mice", "conditions": "Staphylococcus aureus, IID803, 168 h; oral, 1 h after i.p. infection, mice, survival after one week, average of several tests; read-out: 50% effective dose (ED50)", "experimental": "Staphylococcus aureus IID 803\nThe test microorganism was subjected to standing culture in Brain heart infusion broth (manufactured by DIFCO) at 37° C. for 16 to 18 hours. The culture was then diluted with PBS (Dulbecco's phosphate buffered saline) to adjust the concentration of bacteria to 4×10^7 -8×10^7 CFU/ml. The mixture was mixed with an equivalent amount of 10% (w/v) Mucin (BACTO MUCIN BACTERIOLOGICAL, manufactured by Difco Co.) to prepare a bacterial suspension. The thus prepared bacterial suspension (0.5 ml each) was intraperitoneally inoculated to ddY male mice (5 weeks age, weighing 24-27 g, 5 mice in each group), to infect the animals, by which systemic infectious model was prepared.\nThe mice were daily observed for one week, and from the survival number of mice after one week, the 50% effective dose (ED50) was calculated by Weil method. This test was repeated several times and the average of ED50 was calculated."}, "[2]": {"test_system": "Staphylococcus aureus IID 803", "experiment": "MIC, Experiment 1", "type": "cell-based", "conditions": "IID803, S. aureus IID 803, Gram +, read-out: Min. inhib. concentr. (MIC)", "experimental": "(§1) The compounds of the present invention (B, E, G, H, M, N, O, P and Q) were each dissolved in dimethylsulfoxide to prepare a solution of 5000 μg/ml in concentration. The compounds of the present invention (I, J and K) and the known compound (Y) were each dissolved in sterilized distilled water to prepare a solution of 5000 μg/ml in concentration. Each solution was diluted with sterilized distilled water to prepare a standard solution with a concentration of each test compound: 1000 μg/ml. The test was carried out by a method as appointed by Japan Society of Chemotherapy [cf. Chemotherapy, 29, 76-79 (1981), TOKYO].\n(§2) As to Streptococcus pneumoniae and Streptococcus pyogenes, Brain heart infusion broth (manufactured by DIFCO) was used as the medium for the preculture thereof, and a heart infusion agar medium containing 5% defibrinated horse blood (manufactured by Nissui Seiyaku K. K., Japan) was used as the medium for the measurement of minimum inhibitory concentration (MIC). As to other microorganisms, a sensitivity test broth (manufactured by Nissui Seiyaku K. K.) was used as the medium for the preculture thereof, and a sensitivity test agar medium (manufactured by Nissui Seiyaku K. K.) was used as the medium for the measurement of MIC."}, "[3]": {"test_system": "Staphylococcus aureus FDA 243", "experiment": "MIC, Experiment 1", "type": "cell-based", "conditions": "FDA243, S. aureus FDA 243, Gram +, read-out: Min. inhib. concentr. (MIC)", "experimental": "as §1, §2"}, "[4]": {"test_system": "Proteus mirabilis IFO 3849", "experiment": "MIC, Experiment 1", "type": "cell-based", "conditions": "IFO3849, P. mirabilis IFO 3849, Gram -, read-out: Min. inhib. concentr. (MIC)", "experimental": "as §1, §2"}, "[5]": {"test_system": "Micrococcus luteus ATCC 9341", "experiment": "MIC, Experiment 1", "type": "cell-based", "conditions": "ATCC9341, M. luteus ATCC 9341, Gram +, read-out: Min. inhib. concentr. (MIC)", "experimental": "as §1, §2"}, "[6]": {"test_system": "Acinetobacter calcoaceticus Ac 54", "experiment": "MIC, Experiment 1", "type": "cell-based", "conditions": "AC54, A. calcoaceticus Ac 54, Gram -, read-out: Min. inhib. concentr. (MIC)", "experimental": "as §1, §2"}, "[7]": {"test_system": "Bacillus subtilis ATCC 6633", "experiment": "MIC, Experiment 1", "type": "cell-based", "conditions": "ATCC6633, B. subtilis ATCC 6633, Gram +, read-out: Min. inhib. concentr. (MIC)", "experimental": "as §1, §2"}, "[8]": {"test_system": "Staphylococcus aureus FDA 209P JC-1", "experiment": "MIC, Experiment 1", "type": "cell-based", "conditions": "FDA209P, S. aureus FDA 209P JC-1, Gram +, read-out: Min. inhib. concentr. (MIC)", "experimental": "as §1, §2"}, "[9]": {"test_system": "Staphylococcus aureus Terajima (IID 670)", "experiment": "MIC, Experiment 1", "type": "cell-based", "conditions": "IID670, S. aureus Terajima (IID 670), Gram +, read-out: Min. inhib. concentr. (MIC)", "experimental": "as §1, §2"}, "[10]": {"test_system": "Pseudomonas aeruginosa NCTC 10490", "experiment": "MIC, Experiment 1", "type": "cell-based", "conditions": "NCTC10490, P. aeruginosa NCTC 10490, Gram -, read-out: Min. inhib. concentr. (MIC)", "experimental": "as §1, §2"}, "Enterobacter cloacae 963": {"test_system": "Enterobacter cloacae 963", "experiment": "MIC, Experiment 1", "type": "cell-based", "conditions": "E. cloacae 963, Gram -, read-out: Min. inhib. concentr. (MIC)", "experimental": "as §1, §2"}, "[11]": {"test_system": "Escherichia coli NIHJ JC-2", "experiment": "MIC, Experiment 1", "type": "cell-based", "conditions": "NIHJJC2, E. coli NIHJ JC-2, Gram -, read-out: Min. inhib. concentr. (MIC)", "experimental": "as §1, §2"}, "Bacillus cereus IAM 1029": {"test_system": "Bacillus cereus IAM 1029", "experiment": "MIC, Experiment 1", "type": "cell-based", "conditions": "IAM1029, B. cereus IAM 1029, Gram +, read-out: Min. inhib. concentr. (MIC)", "experimental": "as §1, §2"}, "[12]": {"test_system": "Staphylococcus aureus ATCC 9144", "experiment": "MIC, Experiment 1", "type": "cell-based", "conditions": "ATCC9144, S. aureus ATCC 9144, Gram +, read-out: Min. inhib. concentr. (MIC)", "experimental": "as §1, §2"}, "[13]": {"test_system": "Staphylococcus aureus Cowan I (IID 975)", "experiment": "MIC, Experiment 1", "type": "cell-based", "conditions": "IID975, S. aureus Cowan I (IID 975), Gram +, read-out: Min. inhib. concentr. (MIC)", "experimental": "as §1, §2"}, "[14]": {"test_system": "Klebsiella pneumoniae PCI-602", "experiment": "MIC, Experiment 1", "type": "cell-based", "conditions": "PCI602, K. pneumoniae PCI-602, Gram -, read-out: Min. inhib. concentr. (MIC)", "experimental": "as §1, §2"}, "[15]": {"test_system": "clinically isolated Enterococcus faecalis", "experiment": "In vitro antibacterial activity against clinical isolates, Experiment 2", "type": "cell-based", "experimental": "(§3) The above solutions were then diluted with sterilized distilled water to prepare a standard solution with a concentration of the test compound: 1000 μg/ml each.\n(§4) For the preculture of each microorganism, there was used as the medium a sensitivity test broth (manufactured by Nissui Seiyaku K. K., Japan), and for the measurement of MIC, there was used a sensitivity test agar medium (manufactured by Nissui Seiyaku K. K.).\n(§5) The clinically isolates used above were isolated from Nov. 1988 to Jun. 1989 and were obtained from Research Section, Tokyo Clinical Research Center."}, "[16]": {"test_system": "clinically isolated Staphylococcus epidermidis", "experiment": "In vitro antibacterial activity against clinical isolates, Experiment 2", "type": "cell-based", "conditions": "Staphylococcus epidermidis", "experimental": "as §3, §4, §5"}, "[17]": {"test_system": "clinically isolated Enterococcus faecium", "experiment": "In vitro antibacterial activity against clinical isolates, Experiment 2", "type": "cell-based", "experimental": "as §3, §4, §5"}, "[18]": {"test_system": "clinically isolated Staphylococcus aureus", "experiment": "In vitro antibacterial activity against clinical isolates, Experiment 2", "type": "cell-based", "experimental": "as §3, §4, §5"}}, "data": [{"smiles": "CC1COc2c(N3CCN(C)CC3)c(F)cc3c(=O)c(C(=O)O)cn1c23", "note": "(stereo not drawn) [Compound (X), 9-Fluoro-3-methyl-10-(4-methyl-1-piperazinyl)-7-oxo-2,3-dihydro-7H-pyrido[1,2,3-de][1,4]benzoxazine-6-carboxylic acid, reference compound]", "values": [{"measurement": "ED50", "setting": "[1]", "result": 11.4, "unit": "mg/kg"}, {"measurement": "MIC", "setting": "[2]", "result": 0.39, "unit": "µg/mL"}, {"measurement": "MIC", "setting": "[3]", "result": 0.39, "unit": "µg/mL"}, {"measurement": "MIC", "setting": "[4]", "result": 0.39, "unit": "µg/mL"}, {"measurement": "MIC", "setting": "[5]", "result": 3.13, "unit": "µg/mL"}, {"measurement": "MIC", "setting": "[6]", "result": 0.39, "unit": "µg/mL"}, {"measurement": "MIC", "setting": "[7]", "result": 0.1, "unit": "µg/mL"}, {"measurement": "MIC", "setting": "[8]", "result": 0.39, "unit": "µg/mL"}, {"measurement": "MIC", "setting": "[9]", "result": 0.39, "unit": "µg/mL"}, {"measurement": "MIC", "setting": "[10]", "result": 1.56, "unit": "µg/mL"}, {"measurement": "MIC", "setting": "Enterobacter cloacae 963", "result": 0.2, "unit": "µg/mL"}, {"measurement": "MIC", "setting": "[11]", "result": 0.1, "unit": "µg/mL"}, {"measurement": "MIC", "setting": "Bacillus cereus IAM 1029", "result": 0.39, "unit": "µg/mL"}, {"measurement": "MIC", "setting": "[12]", "result": 0.39, "unit": "µg/mL"}, {"measurement": "MIC", "setting": "[13]", "result": 0.39, "unit": "µg/mL"}, {"measurement": "MIC", "setting": "[14]", "result": 0.05, "unit": "µg/mL"}, {"measurement": "MIC50", "setting": "[15]", "result": 3.13, "unit": "µg/mL"}, {"measurement": "MIC", "setting": "[15]; 25 clinical strains E. faecalis", "result": "1.56 to 100", "unit": "µg/mL"}, {"measurement": "MIC90", "setting": "[15]; 25 clinical strains E. faecalis, 90% of strains, read-out: MIC90", "result": 50, "unit": "µg/mL"}, {"measurement": "MIC90", "setting": "[16]", "result": 25, "unit": "µg/mL"}, {"measurement": "MIC", "setting": "[16]; 25 clinical strains S. epidermidis", "result": "0.2 to 50", "unit": "µg/mL"}, {"measurement": "MIC50", "setting": "[16]; 25 clinical strains S. epidermidis, 50% of strains, read-out: MIC50", "result": 0.78, "unit": "µg/mL"}, {"measurement": "MIC90", "setting": "[17]", "result": 100, "unit": "µg/mL"}, {"measurement": "MIC50", "setting": "[17]; 25 clinical strains E. faecium, 50% of strains, read-out: MIC50", "result": 25, "unit": "µg/mL"}, {"measurement": "MIC50", "setting": "[18]", "result": 1.56, "unit": "µg/mL"}, {"measurement": "MIC90", "setting": "[18]", "result": 25, "unit": "µg/mL"}, {"measurement": "MIC", "setting": "[18]; 25 clinical strains S. aureus incl. 16 methicillin resistant", "result": "0.39 to 50", "unit": "µg/mL"}]}]}
